Laboratory results from patent publication US10570129B2 (Zoetis Services LLC, priority 2015, dated 2020).

Experiments:
D. immitis microfilariae = experiment: Dirofilaria immitis, microfilariae (DiMF) in vitro motility assay; format: cell-based; settings: for minimal effective concentration: Dirofilaria immitis, 72 h, read-out: DiMF minimally effective dose (MEC)
Haemonchus contortus L3 = experiment: microbe, parasite or virus in culture; format: cell-based; settings: for minimal effective concentration: Haemonchus contortus, 96 h, read-out: HcL3 Minimal Effective Concentration (MEC)

| Structure (SMILES) | minimal effective concentration (D. immitis microfilariae) | minimal effective concentration (Haemonchus contortus L3) | DiMF minimally effective dose (MEC) (D. immitis microfilariae) | HcL3 Minimal Effective Concentration (MEC) (Haemonchus contortus L3) |
| --- | --- | --- | --- | --- |
| NC(=O)c1ccc2c3c(n(C(=O)NCc4ccnc(Cl)c4)c2c1)CCN(C/C=C/c1ccc(Cl)c(F)c1)C3 [Example 465, (E)-2-(3-(4-chloro-3-fluorophenyl)allyl)-N^5-((2-chloropyridin-4-yl)methyl)-1,2,3,4-tetrahydro-5H-pyrido[4,3-b]indole-5,7-dicarboxamide] | 10 µM | 3.3 µM | – | – |
| N#Cc1ccc(/C=C/CN2CCc3c(c4cc(Cl)c(Cl)cc4n3C(=O)NCc3ccnc(Cl)c3)C2)cc1F [Example 275, (E)-7,8-dichloro-N-((2-chloropyridin-4-yl)methyl)-2-(3-(4-cyano-3-fluorophenyl)allyl)-1,2,3,4-tetrahydro-5H-pyrido[4,3-b]indole-5-carboxamide] | > 100 µM | 0.3 µM | – | – |
| O=C(NCc1ccnc(Cl)c1)n1c2c(c3ccc(Cl)cc31)CN(C/C=C/c1ccc(OC(F)(F)F)cc1)CC2 [Example 221, (E)-7-chloro-N-((2-chloropyridin-4-yl)methyl)-2-(3-(4-(trifluoromethoxy)-phenyl)allyl)-1,2,3,4-tetrahydro-5H-pyrido[4,3-b]indole-5-carboxamide] | 3.3 µM | > 100 µM | – | – |
| O=C(NCc1ccnc(Cl)c1)n1c2c(c3ccc(OC(F)(F)F)cc31)CN(C/C=C/c1ccc(C(F)(F)F)cn1)CC2 [Example 342, (E)-N-((2-chloropyridin-4-yl)methyl)-7-(trifluoromethoxy)-2-(3-(5-(trifluoromethyl)pyridin-2-yl)allyl)-1,2,3,4-tetrahydro-5H-pyrido[4,3-b]indole-5-carboxamide] | 10 µM | 1.8 µM | – | – |
| O=C(NCc1ccnc(F)c1)n1c2c(c3cc(F)c(Cl)cc31)CN(C/C=C/c1ccc(F)cc1)CC2 [Example 319, (E)-7-chloro-8-fluoro-2-(3-(4-fluorophenyl)allyl)-N-((2-fluoropyridin-4-yl)methyl)-1,2,3,4-tetrahydro-5H-pyrido[4,3-b]indole-5-carboxamide] | 10 µM | 10 µM | – | – |
| O=C(NCc1ccnc(Cl)c1)n1c2c(c3ccc(OC(F)(F)F)cc31)CN(C/C=C/c1ccc(Cl)c(F)c1)CC2 [Example 336, (E)-2-(3-(4-chloro-3-fluorophenyl)allyl)-N-((2-chloropyridin-4-yl)methyl)-7-(trifluoromethoxy)-1,2,3,4-tetrahydro-5H-pyrido[4,3-b]indole-5-carboxamide] | 33 µM | 1 µM | – | – |
| Cc1cc2c3c(n(C(=O)NCc4ccnc(Cl)c4)c2cc1C#N)CCN(C/C=C/c1ccc(Cl)cc1)C3 [Example 176, (E)-2-(3-(4-chlorophenyl)allyl)-N-((2-chloropyridin-4-yl)methyl)-7-cyano-8-methyl-1,2,3,4-tetrahydro-5H-pyrido[4,3-b]indole-5-carboxamide] | 3.3 µM | 0.2 µM | – | – |
| O=C(NCc1ccnc(Cl)c1)n1c2c(c3cc4c(cc31)COC4)CN(C/C=C/c1ccc(C(F)(F)F)cn1)CC2 [Example 474, (E)-N-((2-chloropyridin-4-yl)methyl)-8-(3-(5-(trifluoromethyl)pyridin-2-yl)allyl)-1,3,6,7,8,9-hexahydro-5H-furo[3,4-f]pyrido[4,3-b]indole-5-carboxamide] | 10 µM | 0.2 µM | – | – |
| O=C(NCc1ccnc(F)c1)n1c2c(c3cc(OC(F)(F)F)ccc31)CN(C/C=C/c1ccc(F)c(F)c1)CC2 [Example 405, (E)-2-(3-(3,4-difluorophenyl)allyl)-N-((2-fluoropyridin-4-yl)methyl)-8-(trifluoromethoxy)-1,2,3,4-tetrahydro-5H-pyrido[4,3-b]indole-5-carboxamide] | 5.7 µM | 0.3 µM | – | – |
| O=C(NCc1ccnc(F)c1)n1c2c(c3cc(C4CC4)ccc31)CN(C/C=C/c1ccc(Cl)cc1)CC2 [Example 501, (E)-2-(3-(4-chlorophenyl)allyl)-8-cyclopropyl-N-((2-fluoropyridin-4-yl)methyl)-1,2,3,4-tetrahydro-5H-pyrido[4,3-b]indole-5-carboxamide] | 18.2 µM | 3.3 µM | – | – |
| CCOc1cc2c(cc1Br)c1c(n2C(=O)NCc2ccnc(Cl)c2)CCN(C/C=C/c2ccc(Cl)cc2)C1 [Example 468, (E)-8-bromo-2-(3-(4-chlorophenyl)allyl)-N-((2-chloropyridin-4-yl)methyl)-7-ethoxy-1,2,3,4-tetrahydro-5H-pyrido[4,3-b]indole-5-carboxamide] | 1.8 µM | 0.2 µM | – | – |
| N#Cc1ccc2c(c1)c1c(n2C(=O)NCc2ccnc(Cl)c2)CCN(C/C=C/c2c(F)cc(F)cc2F)C1 [Example 76, (E)-N-((2-chloropyridin-4-yl)methyl)-8-cyano-2-(3-(2,4,6-trifluorophenyl)allyl)-1,2,3,4-tetrahydro-5H-pyrido[4,3-b]indole-5-carboxamide] | > 100 µM | 0.1 µM | – | – |
| N#Cc1ccc2c(c1)c1c(n2C(=O)NCc2ccnc(F)c2)CCN(C/C=C/c2cc(F)cc(F)c2)C1 [Example 117, (E)-8-cyano-2-(3-(3,5-difluorophenyl)allyl)-N-((2-fluoropyridin-4-yl)methyl)-1,2,3,4-tetrahydro-5H-pyrido[4,3-b]indole-5-carboxamide] | 1.8 µM | 0.2 µM | – | – |
| N#Cc1ccc(/C=C/CN2CCc3c(c4cc(F)c(Cl)cc4n3C(=O)NCc3ccnc(Cl)c3)C2)cc1F [Example 298, (E)-7-chloro-N-((2-chloropyridin-4-yl)methyl)-2-(3-(4-cyano-3-fluoro-phenyl)allyl)-8-fluoro-1,2,3,4-tetrahydro-5H-pyrido[4,3-b]indole-5-carboxamide] | > 100 µM | 1.8 µM | – | – |
| N#Cc1ccc2c(c1)c1c(n2C(=O)NCc2ccnc(Cl)c2)CCN(C/C=C/c2cc(F)ccc2Br)C1 [Example 77, (E)-2-(3-(2-bromo-5-fluorophenyl)allyl)-N-((2-chloropyridin-4-yl)methyl)-8-cyano-1,2,3,4-tetrahydro-5H-pyrido[4,3-b]indole-5-carboxamide] | > 100 µM | 0.3 µM | – | – |
| O=C(NCc1ccnc(F)c1)n1c2c(c3cc(F)c(Cl)cc31)CN(C/C=C/c1ccc(F)cc1F)CC2 [Example 312, (E)-7-chloro-2-(3-(2,4-difluorophenyl)allyl)-8-fluoro-N-((2-fluoropyridin-4-yl)methyl)-1,2,3,4-tetrahydro-5H-pyrido[4,3-b]indole-5-carboxamide] | 1 µM | 0.1 µM | – | – |
| O=C(NCc1ccnc(F)c1)n1c2c(c3ccc(OC(F)(F)F)cc31)CN(C/C=C/c1ccc(F)cc1Cl)CC2 [Example 373, (E)-2-(3-(2-chloro-4-fluorophenyl)allyl)-N-((2-fluoropyridin-4-yl)methyl)-7-(trifluoromethoxy)-1,2,3,4-tetrahydro-5H-pyrido[4,3-b]indole-5-carboxamide] | 10 µM | 1.8 µM | – | – |
| O=C(NCc1ccnc(Cl)c1)n1c2c(c3cc(F)ccc31)CN(C/C=C/c1ccc(Cl)cc1)CC2 [Example 169, (E)-2-(3-(4-chlorophenyl)allyl)-N-((2-chloropyridin-4-yl)methyl)-8-fluoro-1,2,3,4-tetrahydro-5H-pyrido[4,3-b]indole-5-carboxamide] | 18.2 µM | 0.1 µM | – | – |
| O=C(NCc1cnc(Cl)s1)n1c2c(c3cc(Br)ccc31)CN(C/C=C/c1ccc(Cl)cc1)CC2 [Example 193, (E)-8-bromo-2-(3-(4-chlorophenyl)allyl)-N-((2-chlorothiazol-5-yl)methyl)-1,2,3,4-tetrahydro-5H-pyrido[4,3-b]indole-5-carboxamide] | 75.8 µM | 1 µM | – | – |
| O=C(NCc1ccnc(Cl)c1)n1c2c(c3cc(OC(F)(F)F)ccc31)CN(C/C=C/c1ccc(F)c(Cl)c1)CC2 [Example 388, (E)-2-(3-(3-chloro-4-fluorophenyl)allyl)-N-((2-chloropyridin-4-yl)methyl)-8-(trifluoromethoxy)-1,2,3,4-tetrahydro-5H-pyrido[4,3-b]indole-5-carboxamide] | > 100 µM | 1.8 µM | – | – |
| O=C(NCc1ccnc(Cl)c1)N1c2ccc(Cl)cc2C2CN(C/C=C/c3ccc(Cl)cc3)CCC21 (stereo not drawn) [Example 516, (E)-8-chloro-2-(3-(4-chlorophenyl)allyl)-N-((2-chloropyridin-4-yl)methyl)-1,2,3,4,4a,9b-hexahydro-5H-pyrido[4,3-b]indole-5-carboxamide] | – | – | 10.0 µM | 0.3 µM |
| Cc1cc2c(cc1OC(F)(F)F)c1c(n2C(=O)NCc2ccnc(Cl)c2)CCN(C/C=C/c2ccc(Cl)cc2)C1 [Example 494, (E)-2-(3-(4-chlorophenyl)allyl)-N-((2-chloropyridin-4-yl)methyl)-7-methyl-8-(trifluoromethoxy)-1,2,3,4-tetrahydro-5H-pyrido[4,3-b]indole-5-carboxamide] | > 100 µM | 1 µM | – | – |
| O=C(NCc1ccnc(F)c1)n1c2c(c3cc(F)c(Cl)cc31)CN(C/C=C/c1ccc(Cl)cc1F)CC2 [Example 310, (E)-7-chloro-2-(3-(4-chloro-2-fluorophenyl)allyl)-8-fluoro-N-((2-fluoropyridin-4-yl)methyl)-1,2,3,4-tetrahydro-5H-pyrido[4,3-b]indole-5-carboxamide] | 24.5 µM | 1.3 µM | – | – |
| O=C(NCc1ccnc(Cl)c1)n1c2c(c3ccc(OC(F)(F)F)cc31)CN(C/C=C/c1ccc(Cl)cc1)CC2 [Example 353, (E)-2-(3-(4-chlorophenyl)allyl)-N-((2-chloropyridin-4-yl)methyl)-7-(trifluoromethoxy)-1,2,3,4-tetrahydro-5H-pyrido[4,3-b]indole-5-carboxamide] | 18.2 µM | 1 µM | – | – |
